Assay results as given in patent US12213993B2, “Coated medicinal clay compositions, pharmaceutical compositions, and delivery of cation sources and methods of use thereof” (priority 2021, dated 2025).

test: Calculation of chloride binding by cations of clay/silver wound dressing in wound exudate; assay type: physicochemical; settings: without the chelation of chloride provided by the medicinal clay
Excerpt: Medicinal clay in a pharmaceutical composition was applied to an exemplary wound dressing, which incorporated an additional therapeutic cation, silver. Wound exudate is known to contain anions, which can interfere with the medicinal qualities of the medicinal clay and additional therapeutic agents when the medicinal clay comes into contact with the moisture of the wound exudate (a water source). Wound exudate is variable patient to patient, so an average amount of 101 mEq/L chloride anions was used. The medicinal clay of Example 1 was analyzed for cations, which may interact with the chloride in wound exudate. Table 5 describes an approximate amount of ions present the exemplary clay composition of the wound dressing (4×4 inch pad), silver added into the wound dressing for delivery with the clay, and wound exudate, as well as the amount of each in the exemplary wound dressing and wound exudate (grams). […] A skilled artisan will appreciate from the disclosure of the calculations that such a minimum effective amount can vary based on an exudate sample. Accordingly, the calculated atoms and weight (g) in Table 5 can have a variation of about ±30%, ±25%, ±20%, ±15%, or ±10%. The exemplary wound dressings comprise from about 0.1 to about 2.5 grams of the clay composition, preferably from about 0.2 to about 0.8 grams of the clay composition. […]

In the case of [Ag+] [silver], the “silver in the dressing that chloride could bind prior to release” value is reported as 72%.

test: not given; settings: ion pair with chloride; cited from earlier work

Going from [Cl][Ag] [AgCl] to [Cl][Fe]([Cl])[Cl] [FeCl3], the “Lattice Energy” value rises from 187 kcal/mol to 1282 kcal/mol.

First: [Cl][Al]([Cl])[Cl] [AlCl3]
Second: [Cl][Fe][Cl] [FeCl2]
The “Lattice Energy” value of the first is higher: 1228 kcal/mol for the first, 614 kcal/mol for the second.

Compared with [Ca+2].[Cl-].[Cl-] [CaCl2], [Cl-].[Cl-].[Mg+2] [MgCl2] is higher in “Lattice Energy” value: 542.1 kcal/mol for the first, 592 kcal/mol for the second.

Compared with [Cl-].[K+] [KCl], [Cl-].[Na+] [NaCl] is higher in “Lattice Energy” value: 168 kcal/mol for the first, 184 kcal/mol for the second.

In the case of [Cl][Mn][Cl] [MnCl2], the “Lattice Energy” value is given as 599.9 kcal/mol.
